Assays:
[1] = Inhibition of beta amyloid 25-35 fibril formation at 10 uM
[2] = Inhibition of beta amyloid 25-35 fibril formation

Row | SMILES | inhibition [1] | EC50 [2]
1 | Oc1cc(O)c2c(c1)O[C@H](c1cc(O)c(O)c(O)c1)[C@H](O)C2 | 18% | –
2 | COc1cc(/C=C/c2ccc(O)cc2)cc(OC)c1 | 35% | –
3 | Oc1cc(O)c2cc(O)c(-c3cc(O)c(O)c(O)c3)[o+]c2c1 | 26% | –
4 | Oc1ccc(/C=C/c2cc(O)cc(O)c2)cc1 [RESVERATROL] | 63% | 6 µM
5 | COc1cc(/C=C/C(=O)CC(=O)/C=C/c2ccc(O)c(OC)c2)ccc1O [CURCUMIN] | 45% | 10 µM
6 | Oc1cc(O)c2cc(O)c(-c3ccc(O)c(O)c3)[o+]c2c1 | 35% | –
7 | COc1cc(-c2[o+]c3cc(O)cc(O)c3cc2O[C@@H]2O[C@H](CO)[C@@H](O)[C@H](O)[C@H]2O)cc(OC)c1O [OENIN] | 44% | 10 µM
8 | COc1cc(-c2[o+]c3cc(O)cc(O)c3cc2O)cc(OC)c1O [MALVIDIN] | 46% | 10 µM
9 | O=C(O[C@@H]1Cc2c(O)cc(O)cc2O[C@@H]1c1cc(O)c(O)c(O)c1)c1cc(O)c(O)c(O)c1 | 13% | –
10 | COc1cccc(OC)c1C(=O)OCc1cc(O)ccc1O[C@@H]1O[C@H](CO)[C@@H](O)[C@H](O)[C@H]1O | 28% | –
11 | O=C(O[C@@H]1Cc2c(O)cc(O)cc2O[C@@H]1c1ccc(O)c(O)c1)c1cc(O)c(O)c(O)c1 | 13% | –
12 | COc1ccc(O)c(OC)c1C(=O)OCc1ccccc1O[C@@H]1O[C@H](CO)[C@@H](O)[C@H](O)[C@H]1O [CURCULIGOSIDE D] | 49% | 9.5 µM
13 | O=C(O)/C=C/c1ccc(O)cc1 | 17% | –
14 | OC[C@H]1O[C@@H](Oc2cc3c(O)cc(O)cc3[o+]c2-c2ccc(O)c(O)c2)[C@H](O)[C@@H](O)[C@@H]1O | 31% | –
15 | COc1cccc(O)c1C(=O)OCc1cc(O)ccc1O[C@@H]1O[C@H](CO)[C@@H](O)[C@H](O)[C@H]1O [CURCULIGOSIDE B] | 53% | 8.5 µM
16 | O=C(O)c1ccc(O)cc1 | 29% | –
17 | O=C(O)/C=C/c1ccc(O)c(O)c1 | 15% | –
